Measured values taken from the CheMixHub ionic liquid set.

Experiment: xn = mol fraction of the nth substance listed
Details: 100 kPa

CCCCCCCC[n+]1ccccc1.[Br-] + NCC(=O)O + O
Details | electrical conductivity [S/m]
288.15 K, x2 = 0.0008947, x1 = 0.006107 | 1.24
288.15 K, x2 = 0.000895, x1 = 0.005825 | 1.21
288.15 K, x2 = 0.0008952, x1 = 0.005524 | 1.18
288.15 K, x2 = 0.0008955, x1 = 0.005206 | 1.15
288.15 K, x2 = 0.0008958, x1 = 0.004856 | 1.11
288.15 K, x2 = 0.0008962, x1 = 0.004472 | 1.07
288.15 K, x2 = 0.0008965, x1 = 0.004053 | 1
288.15 K, x2 = 0.0008969, x1 = 0.003596 | 0.923
288.15 K, x2 = 0.0008974, x1 = 0.003095 | 0.831
288.15 K, x2 = 0.0008979, x1 = 0.00254 | 0.716
288.15 K, x2 = 0.0008984, x1 = 0.00193 | 0.579
288.15 K, x2 = 0.0008988, x1 = 0.001523 | 0.48
288.15 K, x2 = 0.0008992, x1 = 0.00113 | 0.377
288.15 K, x2 = 0.0008996, x1 = 0.000679 | 0.257
288.15 K, x2 = 0.001793, x1 = 0.003383 | 0.886
288.15 K, x2 = 0.001794, x1 = 0.002789 | 0.766
288.15 K, x2 = 0.001795, x1 = 0.002127 | 0.621
288.15 K, x2 = 0.001796, x1 = 0.00171 | 0.522
288.15 K, x2 = 0.001797, x1 = 0.0007678 | 0.279
288.15 K, x2 = 0.001797, x1 = 0.001253 | 0.407
293.15 K, x2 = 0.0008947, x1 = 0.006101 | 1.41
293.15 K, x2 = 0.000895, x1 = 0.005819 | 1.38
293.15 K, x2 = 0.0008952, x1 = 0.005519 | 1.34
293.15 K, x2 = 0.0008955, x1 = 0.005201 | 1.3
293.15 K, x2 = 0.0008958, x1 = 0.00485 | 1.26
293.15 K, x2 = 0.0008962, x1 = 0.004469 | 1.21
293.15 K, x2 = 0.0008965, x1 = 0.00405 | 1.13
293.15 K, x2 = 0.0008969, x1 = 0.003594 | 1.05
293.15 K, x2 = 0.0008974, x1 = 0.003091 | 0.935
293.15 K, x2 = 0.0008979, x1 = 0.002538 | 0.809
293.15 K, x2 = 0.0008985, x1 = 0.001923 | 0.652
293.15 K, x2 = 0.0008988, x1 = 0.001521 | 0.542
293.15 K, x2 = 0.0008992, x1 = 0.00113 | 0.423
293.15 K, x2 = 0.0008996, x1 = 0.000679 | 0.285
293.15 K, x2 = 0.001793, x1 = 0.003379 | 1
293.15 K, x2 = 0.001794, x1 = 0.002785 | 0.864
293.15 K, x2 = 0.001795, x1 = 0.002125 | 0.701
293.15 K, x2 = 0.001796, x1 = 0.001708 | 0.589
293.15 K, x2 = 0.001797, x1 = 0.0007678 | 0.312
293.15 K, x2 = 0.001797, x1 = 0.001251 | 0.458
298.15 K, x2 = 0.0008947, x1 = 0.006092 | 1.59
298.15 K, x2 = 0.000895, x1 = 0.005812 | 1.55
298.15 K, x2 = 0.0008952, x1 = 0.005512 | 1.51
298.15 K, x2 = 0.0008955, x1 = 0.005195 | 1.47
298.15 K, x2 = 0.0008958, x1 = 0.004845 | 1.42
298.15 K, x2 = 0.0008962, x1 = 0.004462 | 1.35
298.15 K, x2 = 0.0008965, x1 = 0.004044 | 1.27
298.15 K, x2 = 0.000897, x1 = 0.003589 | 1.18
298.15 K, x2 = 0.0008974, x1 = 0.003088 | 1.05
298.15 K, x2 = 0.0008979, x1 = 0.002534 | 0.906
298.15 K, x2 = 0.0008985, x1 = 0.001921 | 0.725
298.15 K, x2 = 0.0008988, x1 = 0.001519 | 0.603
298.15 K, x2 = 0.0008992, x1 = 0.001128 | 0.473
298.15 K, x2 = 0.0008996, x1 = 0.0006772 | 0.315
298.15 K, x2 = 0.001793, x1 = 0.003376 | 1.11
298.15 K, x2 = 0.001794, x1 = 0.002781 | 0.967
298.15 K, x2 = 0.001795, x1 = 0.002123 | 0.782
298.15 K, x2 = 0.001796, x1 = 0.001706 | 0.657
298.15 K, x2 = 0.001797, x1 = 0.000766 | 0.347
298.15 K, x2 = 0.001797, x1 = 0.001249 | 0.511
303.15 K, x2 = 0.0008947, x1 = 0.006085 | 1.78
303.15 K, x2 = 0.000895, x1 = 0.005803 | 1.74
303.15 K, x2 = 0.0008952, x1 = 0.005503 | 1.69
303.15 K, x2 = 0.0008955, x1 = 0.005188 | 1.64
303.15 K, x2 = 0.0008958, x1 = 0.004838 | 1.58
303.15 K, x2 = 0.0008962, x1 = 0.004456 | 1.51
303.15 K, x2 = 0.0008965, x1 = 0.004039 | 1.42
303.15 K, x2 = 0.000897, x1 = 0.003583 | 1.3
303.15 K, x2 = 0.0008974, x1 = 0.003082 | 1.17
303.15 K, x2 = 0.0008979, x1 = 0.002531 | 1
303.15 K, x2 = 0.0008985, x1 = 0.001917 | 0.791
303.15 K, x2 = 0.0008988, x1 = 0.001517 | 0.654
303.15 K, x2 = 0.0008992, x1 = 0.001126 | 0.519
303.15 K, x2 = 0.0008996, x1 = 0.0006772 | 0.351
303.15 K, x2 = 0.001793, x1 = 0.00337 | 1.24
303.15 K, x2 = 0.001794, x1 = 0.002778 | 1.08
303.15 K, x2 = 0.001795, x1 = 0.002119 | 0.859
303.15 K, x2 = 0.001796, x1 = 0.001704 | 0.719
303.15 K, x2 = 0.001797, x1 = 0.000766 | 0.383
303.15 K, x2 = 0.001797, x1 = 0.001247 | 0.566
308.15 K, x2 = 0.0008947, x1 = 0.006075 | 2.03
308.15 K, x2 = 0.000895, x1 = 0.005792 | 1.97
308.15 K, x2 = 0.0008952, x1 = 0.005494 | 1.9
308.15 K, x2 = 0.0008955, x1 = 0.005178 | 1.84
308.15 K, x2 = 0.0008958, x1 = 0.004829 | 1.75
308.15 K, x2 = 0.0008962, x1 = 0.004449 | 1.66
308.15 K, x2 = 0.0008966, x1 = 0.004032 | 1.57
308.15 K, x2 = 0.000897, x1 = 0.003578 | 1.44
308.15 K, x2 = 0.0008974, x1 = 0.003077 | 1.26
308.15 K, x2 = 0.0008979, x1 = 0.002527 | 1.07
308.15 K, x2 = 0.0008985, x1 = 0.001914 | 0.861
308.15 K, x2 = 0.0008988, x1 = 0.001516 | 0.717
308.15 K, x2 = 0.0008992, x1 = 0.001125 | 0.574
308.15 K, x2 = 0.0008996, x1 = 0.0006754 | 0.425
308.15 K, x2 = 0.001793, x1 = 0.003365 | 1.36
308.15 K, x2 = 0.001794, x1 = 0.002774 | 1.17
308.15 K, x2 = 0.001795, x1 = 0.002116 | 0.934
308.15 K, x2 = 0.001796, x1 = 0.001701 | 0.79
308.15 K, x2 = 0.001797, x1 = 0.0007642 | 0.453
308.15 K, x2 = 0.001797, x1 = 0.001245 | 0.624
